Laboratory results from patent publication US20210000740A1, “COMPOSITIONS FOR SMALL MOLECULE THERAPEUTIC AGENT COMPOUNDS” (Delpor, Inc., priority 2018, published 2021).
Converted amounts (≈) assume the structure as drawn. Like-named read-outs stand apart in the source and are kept apart here.

How the values were obtained:
[1] = In vitro pH of compositions prepared with organic acids (Table 1); type: physicochemical; settings: composition prepared with the organic acid
Protocol: Compositions were prepared with the following organic acids listed in Table 1, and pH values were measured.

[2] = cited from earlier work
[3] = cited from earlier work; for Water Solubility: intrinsic water solubility of the acid used in Example 5
[4] = cited from earlier work; remark: listed apart in the source
[5] = pH of a saturated aqueous solution of the acid; type: physicochemical; settings: excluding the drug
Protocol: The rates of in vitro release of the risperidone salts listed in Example 5 are also related in part to the pH of a saturated aqueous solution of the acid. The pH at saturating concentrations of the acids used in Example 5 and their respective risperidone release rates (expressed as the cumulative percent total risperidone released following 15 days incubation at 37° C.) are shown in FIG. 7.

[6] = in vitro, after 28 days, PBS 37° C.

## O=C(O)C=Cc1ccc(Cl)cc1 [4-Chlorocinnamic]
[1]
  In vitro pH: 6.34
[2]; organic acid, Table 1
  pKa: 4.41

## Nc1ccc(C(=O)O)cc1 [PABA, p-aminobenzoic acid]
[1]
  In vitro pH: 4.21
[2]; organic acid, Table 1
  pKa: 4.65

## O=C(O)/C=C/c1cccc(O)c1 [m-Coumaric, m-coumaric acid]
[1]
  In vitro pH: 3.95
[2]
  pKa: 4.01
[3]
  Solubility: 1.04 mg/mL (≈ 6.34 mM)

## O=C(O)c1cccnc1 [Nicotinic, nicotinic acid]
[1]
  In vitro pH: 3.68

## Cc1ccc(C=CC(=O)O)cc1 [4-Methylcinnamic]
[1]
  In vitro pH: 6.13

## CCCc1nc(C)c2c(=O)[nH]c(-c3cc(S(=O)(=O)N4CCN(CC)CC4)ccc3OCC)nn12 [vardenafil]
[4]
  water solubility (in words): limited water solubility

## O=C(O)C(O)c1ccccc1 (racemic) [rac-Mandelic]
[1]
  In vitro pH: 2.42
[2]; organic acid, Table 1
  pKa: 3.85
[3]; organic acid, Table 1
  Solubility: 158.7 mg/mL (≈ 1040 mM)

## CCN(C)C(=O)Oc1cccc([C@H](C)N(C)C)c1 [Rivastigmine]
[4]
  water solubility (in words): poorly water soluble

## O=C(O)CCc1ccc(O)cc1 [Hydroxyphenylpropionic acid, 3-(4-hydroxyphenyl)propionic acid]
[3]
  Water Solubility: 2.76 mg/mL
[5]
  pH at a saturating concentration: 3.0

## Clc1ccc2nsnc2c1NC1=NCCN1 [tizanidine free base, tizanidine]
[6]
  percent of the drug released: approximately 10%

## O=C(O)CCCCCCCCC(=O)O [Sebacic, sebacic acid]
[2]; organic acid, Table 1
  pKa: 4.72

## Cc1nc2n(c(=O)c1CCN1CCC(c3noc4cc(F)ccc34)CC1)CCCC2 [risperidone]
[4]; 20-25° C.
  insolubility in water as a neutral free base: > 10000 volumes of water per volume of drug

## O=C(O)/C=C/c1ccc(O)cc1 [p-Coumaric, p-coumaric acid]
[1]
  In vitro pH: 4.36
[3]; organic acid, Table 1
  Solubility: 1 to 10 mg/mL

## Cc1nccn1CC1CCc2c(c3ccccc3n2C)C1=O (stereo not drawn) [ondansetron]
[4]
  water solubility (in words): limited water solubility

## COc1cccc(C=CC(=O)O)c1 [m-Methoxycinnamic, m-methoxycinnamic acid]
[1]
  In vitro pH: 4.49
[2]; organic acid, Table 1
  pKa: 4.47
[3]; organic acid, Table 1
  Solubility: 4.46 mg/mL (≈ 25 mM)

## CN(C)CCC[C@@]1(c2ccc(F)cc2)OCc2cc(C#N)ccc21 [Escitalopram]
[4]
  water solubility (in words): practically insoluble in water

## O=C(O)CNC(=O)c1ccccc1 [Hippuric acid]
[5]
  pH at a saturating concentration: 2.6

## O=C(O)/C=C/c1ccccc1 [trans-Cinnamic, trans-cinnamic acid]
[1]
  In vitro pH: 4.35

## O=c1[nH]c(=O)c2[nH]c(=O)[nH]c2[nH]1 [Uric acid]
[3]
  Water Solubility: 0.06 mg/mL

## COc1ccc(C=CC(=O)O)cc1 [p-Methoxycinnamic, p-methoxycinnamic acid]
[1]
  In vitro pH: 5.37
[2]; organic acid, Table 1
  pKa: 4.04
[3]; organic acid, Table 1
  Solubility: 0.712 mg/mL (≈ 4 mM)

## CCCN(CCc1cccs1)[C@H]1CCc2c(O)cccc2C1 [Rotigotine]
[4]
  water solubility (in words): practically insoluble in water

## COc1ccc(C(=O)O)cc1 [p-Anisic, p-anisic acid]
[1]
  In vitro pH: 5.05
[2]; organic acid, Table 1
  pKa: 4.34
[3]; organic acid, Table 1
  Solubility: 0.4 mg/mL (≈ 2.63 mM)

## Cc1cc2c(s1)Nc1ccccc1N=C2N1CCN(C)CC1 [olanzapine, reference compound]
[2]; reported value, doubly protonated olanzapine
  pKa1: 5.0
[4]
  water solubility (in words): poorly water soluble

## O=C1CC2(CCCC2)CC(=O)N1CCCCN1CCN(c2ncccn2)CC1 [Buspirone]
[4]; room temperature
  room temperature water solubility: about 21 mg/L
